Measured values as given in patent US11344510B2, “Arylcyclohexylamine derivatives and their use in the treatment of psychiatric disorders” (Gilgamesh Pharmaceuticals, Inc., priority 2019, dated 2022).
Read-outs that look alike come from different tables or passages of the source.

Legend:
[1] = biological target: T1, serotonin transporter (SERT) (Homo sapiens, UniProt P31645); assay: Fluorescent substrate uptake inhibition, SERT; type: cell-based; conditions: for inhibition at 10 µM: HEK293 cells expressing SERT
T1 construct: expressed in transfected cells; host or cells: HEK293

[2] = MLM stability (High Activity); type: in vitro ADME, BALB/c mice; conditions: male, BALB/c, mouse, liver microsomes, pH 7.4, Condition 2 (High Activity), 1.0 mg protein/mL
Method in brief: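 Pooled male BALB/c mouse liver microsomes (1.0 mg/mL) in 100 mM PBS pH 7.4 with NADPH-regenerating system; compound 1 μM, 37 °C, five time points over 60 min, duplicate; NADPH-free controls. Parent remaining by LC-MS/MS; kel, t1/2 and Clint from linear regression of ln(AUC) versus time.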

[3] = biological target: T2, dopamine transporter (DAT) (Homo sapiens, UniProt Q01959); assay: Fluorescent substrate uptake inhibition, DAT; type: cell-based; conditions: for inhibition at 10 µM: CHO cells expressing DAT
T2 construct: expressed in transfected cells; host or cells: CHO (uptake)

[4] = biological target: T3, vesicular monoamine transporter 2 (VMAT2) (Homo sapiens, UniProt Q05940); assay: Fluorescent substrate uptake inhibition, VMAT2; type: cell-based; conditions: for inhibition at 10 µM: transfected cells
T3 construct: expressed in transfected cells

[5] = tested on: monoamine transporters, MATs (SERT, NET, DAT, VMAT2); assay: Monoamine uptake inhibition, monoamine transporters collectively; type: cell-based; conditions: in words
Experimental: The ability of the compounds of the present invention to inhibit uptake of monoamines by the serotonin transporter (SERT), norepinephrine transporter (NET), dopamine transporter (DAT), and vesicular monoamine transporter 2 (VMAT2) (collectively monoamine transporters, MATs) was measured using fluorescent substrate uptake assays in transfected cells (Table 14). The binding affinities of select compounds were also determined in radioligand displacement assays at SERT, NET, and/or DAT (Table 14).
Uptake Inhibition. The ability of test compounds to block monoamine uptake by SERT, NET, DAT, and VMAT2 was determined using the Neurotransmitter Transporter Uptake Assay Kit manufactured by Molecular Devices (Cat #R8173). Briefly, stably transfected cells expressing the MAT of interest (HEK293 cells for SERT and NET; CHO cells for DAT) were grown and plated into 384-well plates at a concentration of 20,000 cells per well. Plates were then incubated for 16-20 h at 37° C. and 5% CO2. The medium was then aspirated and replaced with 25 μL of assay buffer (20 mM HEPES in HBSS, containing 0.1% BSA) containing the test compounds at the appropriate concentrations. Plates were then centrifuged at 300 rpm for 15 s and then incubated at 37° C. for 30 minutes. At this time, 25 μL of the proprietary fluorescent dye solution was added, the plates were incubated at 37° C. for 60 minutes, and then fluorescence was quantified on a plate reader (excitation wavelength=440 nm, emission wavelength=520 nm). The proprietary dye solution contains a mixture of 1) a fluorescent dye that mimics the endogenous substrates of MATs and is thereby actively transported to the intracellular compartment in the absence of an inhibitor and 2) a masking dye that inhibits the fluorescence of dye 1 in the extracellular compartment. Therefore, the overall fluorescence of the system increases as the fluorescent dye is transported into the cells.

[6] = Oral bioavailability in mice, Method B; type: in vivo; conditions: CD-1 mice; for AUC0-inf (iv) / AUC0-last (po) / AUC(0-inf): Method B: values represent AUC0-last (footnote); for F: 10 mg/kg; for half-life / Cmax / AUC(0-inf): male, mouse
Experimental: Animals. Male CD-1 mice were used in these studies Animals were randomly assigned to treatment groups and were fasted for 4 h before oral dosing.
Drugs. Test compounds were dissolved in a vehicle consisting of normal saline (compounds 19S and 88R) or a mixture of 5% v/v N-methyl-2-pyrrolidone, 5% v/v Solutol HS-15, and 90% v/v normal saline (compounds 11S, 11R, 114S, and 114R). They were then administered intravenously (iv) or orally (po) at a dose of 10 mg/kg (calculated based on freebase) and at a volume of 5 mL/kg body weight. Compounds were tested as the racemates (indicated by “rac” nomenclature) or pure enantiomers (indicated by “R” or “S” nomenclature).
Sample Collection and Bioanalysis. Blood samples (approximately 60 μL) were collected under light isoflurane anesthesia (Surgivet®) from the retro orbital plexus at 0.08, 0.25, 0.5, 1, 2, 4, 8, and 24 h (4 animals per time point) Immediately after blood collection, plasma was harvested by centrifugation at 4000 rpm for 10 min at 4° C. and samples were stored at −70±10° C. until bioanalysis. Following blood collection, animals were immediately sacrificed, the abdominal vena-cava was cut open, and the whole body was perfused from the heart using 10 mL of normal saline, and brain samples were collected from all animals After isolation, brain samples were rinsed three times in ice-cold normal saline (for 5-10 seconds/rinse using ˜5-10 mL normal saline in disposable petri dish for each rinse) and dried on blotting paper. Brain samples were homogenized using ice-cold phosphate-buffered saline (pH 7.4). Total homogenate volume was three times the tissue weight. All homogenates were stored at −70±10° C. until bioanalysis. For bioanalysis, 25 μL aliquots of plasma/brain study samples or spiked plasma/brain calibration standards were added to individual pre-labeled micro-centrifuge tubes followed by 100 μL of an internal standard solution (glipizide, 500 ng/mL in acetonitrile) except for blanks, where 100 μL of acetonitrile was added. Samples were vortexed for 5 minutes and then centrifuged for 10 minutes at 4000 rpm at 4° C. Following centrifugation, 100 μL of each clear supernatant was transferred to a 96 well plate and analyzed with a fit-for-purpose LC-MS/MS method, with authentic samples of each analyte used for calibration and identification.
Data Analysis. Pharmacokinetic parameters were estimated using the non-compartmental analysis tool of Phoenix® WinNonlin software (Ver 8.0).

[7] = calculated based on brain exposure (AUC0-last), Method B
[8] = brain, 10 mg/kg iv, Method B, read-out: t1/2 (iv)
[9] = plasma, 10 mg/kg iv, read-out: AUC0-inf (iv) (converted)
[10] = plasma, 10 mg/kg iv, Method B, read-out: t1/2 (iv)
[11] = plasma, 10 mg/kg po, read-out: AUC0-inf (po) (converted)
[12] = plasma, Method B: based on AUC0-last
[13] = brain, 10 mg/kg po, Method B, read-out: t1/2 (po)
[14] = plasma, 10 mg/kg po, Method B, read-out: t1/2 (po)

T3 sequence (Q05940 whole entry, species assumed): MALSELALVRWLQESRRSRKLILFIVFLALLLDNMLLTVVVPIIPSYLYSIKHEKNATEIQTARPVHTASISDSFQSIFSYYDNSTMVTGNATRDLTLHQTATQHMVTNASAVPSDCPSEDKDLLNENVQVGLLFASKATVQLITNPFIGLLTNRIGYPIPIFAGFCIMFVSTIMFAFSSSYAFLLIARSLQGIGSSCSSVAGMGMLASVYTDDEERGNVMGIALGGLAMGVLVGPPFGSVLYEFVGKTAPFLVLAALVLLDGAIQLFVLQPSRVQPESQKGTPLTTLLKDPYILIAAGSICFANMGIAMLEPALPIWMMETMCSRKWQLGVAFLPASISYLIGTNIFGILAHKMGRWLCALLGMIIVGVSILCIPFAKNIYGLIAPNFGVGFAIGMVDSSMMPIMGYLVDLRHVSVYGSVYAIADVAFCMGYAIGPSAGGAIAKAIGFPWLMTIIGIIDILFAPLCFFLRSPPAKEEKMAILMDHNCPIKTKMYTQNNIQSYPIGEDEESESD
T1 sequence (P31645 whole entry, species assumed): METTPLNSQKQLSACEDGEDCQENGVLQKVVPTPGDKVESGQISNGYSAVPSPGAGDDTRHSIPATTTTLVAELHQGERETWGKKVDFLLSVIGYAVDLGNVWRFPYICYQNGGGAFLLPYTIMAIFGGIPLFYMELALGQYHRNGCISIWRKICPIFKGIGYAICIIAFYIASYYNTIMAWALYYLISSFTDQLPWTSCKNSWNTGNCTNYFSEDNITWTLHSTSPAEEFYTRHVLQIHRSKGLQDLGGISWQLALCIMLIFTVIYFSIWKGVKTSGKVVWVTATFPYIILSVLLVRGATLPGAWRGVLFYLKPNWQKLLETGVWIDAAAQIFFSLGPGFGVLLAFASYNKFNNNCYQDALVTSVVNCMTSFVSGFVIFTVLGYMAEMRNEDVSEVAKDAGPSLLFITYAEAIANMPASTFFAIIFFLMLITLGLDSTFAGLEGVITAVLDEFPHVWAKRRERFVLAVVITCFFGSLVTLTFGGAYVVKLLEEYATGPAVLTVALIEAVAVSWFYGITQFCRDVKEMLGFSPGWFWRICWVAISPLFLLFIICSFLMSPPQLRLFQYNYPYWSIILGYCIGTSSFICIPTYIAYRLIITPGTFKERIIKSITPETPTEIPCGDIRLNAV
T2 sequence (Q01959 whole entry, species assumed): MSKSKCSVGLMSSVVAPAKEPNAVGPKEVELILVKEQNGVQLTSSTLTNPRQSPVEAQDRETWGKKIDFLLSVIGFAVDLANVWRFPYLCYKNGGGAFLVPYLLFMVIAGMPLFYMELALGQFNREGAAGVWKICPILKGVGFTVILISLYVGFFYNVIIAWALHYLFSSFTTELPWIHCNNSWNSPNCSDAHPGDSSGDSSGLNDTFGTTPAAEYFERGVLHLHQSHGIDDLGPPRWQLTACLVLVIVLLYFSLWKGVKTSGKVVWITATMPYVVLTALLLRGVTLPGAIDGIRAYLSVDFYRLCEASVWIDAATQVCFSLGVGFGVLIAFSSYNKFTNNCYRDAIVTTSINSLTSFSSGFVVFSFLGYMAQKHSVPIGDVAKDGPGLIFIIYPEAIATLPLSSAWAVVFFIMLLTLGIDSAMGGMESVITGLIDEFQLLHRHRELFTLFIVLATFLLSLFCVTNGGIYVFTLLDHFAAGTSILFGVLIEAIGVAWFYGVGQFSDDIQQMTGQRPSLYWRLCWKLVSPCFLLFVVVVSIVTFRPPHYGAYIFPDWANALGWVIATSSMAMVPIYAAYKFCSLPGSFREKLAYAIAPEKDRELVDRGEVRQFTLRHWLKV

Row | SMILES | IC50 [1] [nM] | inhibition at 10 µM [1] [%] | half-life at 1 μM [2] [min] | microsomal CLint at 1 μM [2] [µL/min/mg] | inhibition at 10 µM [3] [%] | inhibition at 10 µM [4] [%] | selectivity for NMDAR (over MATs) [5] | AUC0-inf (iv) ([6]; brain, 10 mg/kg iv) | AUC0-last (po) ([6]; brain, 10 mg/kg po) | F [6, 7] [%] | half-life [6, 8] [min] | Cmax ([6]; brain, 10 mg/kg po, Method B) [ng/g] | AUC(0-inf) [6, 9] [ng·h/mL] | half-life [6, 10] [min] | Cmax ([6]; plasma, 10 mg/kg po, Method B) [ng/mL] | AUC(0-inf) [6, 11] [ng·h/mL] | F [6, 12] [%] | half-life [6, 14] [min] | also measured
1 | CN[C@]1(c2ccccc2)CCCCC1=O [Compound 14S, (S)-2-(methylamino)-2-phenylcyclohexan-1-one] | 30600 | 17 | 263 | 3 | -4.5 | 7.4 |  |  |  |  |  |  |  |  |  |  |  |  | 
2 | N[C@]1(c2ccccc2)CCCCC1=O [Compound 11S, (S)-2-amino-2-phenyl-cyclohexan-1-one] |  | -2.6 | 217 | 3 | 10.1 | -17.4 | greater selectivity for NMDAR | 434,023 ng*min/g | 292,247 ng*min/g | 67 | 42 | 2190 | 3420 | 63.6 | 2130 | 4200 | 123 |  | 
3 | Cc1ccccc1[C@]1(N)CCCCC1=O [Compound 114R, (R)-2-amino-2-(o-tolyl)cyclohexan-1-one] |  | 23.4 |  |  | 6.2 | -14 |  | 155,752 ng*min/g | 38,185 ng*min/g | 25 | 19.2 | 683 | 325 | 45 | 319 | 430 | 132 | 76.8 | half-life [6, 13]: 67.2 min
4 | O=C1CCCC[C@]1(c1ccccc1)N1CCC1 [Compound 84R, (R)-2-(azetidin-1-yl)-2-phenyl-cyclohexan-1-one] | 800 | 75.2 | 22.7 | 30 | 28.2 | 14.1 |  |  |  |  |  |  |  |  |  |  |  |  | IC50 [3]: 19.4 µM; IC50 [4]: 98.2 µM
5 | CN[C@@]1(c2ccccc2)CCCCC1=O [Compound 14R, (R)-2-(methylamino)-2-phenylcyclohexan-1-one] | 45500 | 19.3 | 197 | 4 | -4.5 | 6.2 | greater selectivity for NMDAR |  |  |  |  |  |  |  |  |  |  |  | 
6 | CN[C@]1(c2cccc(F)c2)CCCCC1=O [Compound 19S, (5)-2-(3-fluorophenyl)-2-(methylamino)cyclohexan-1-one] |  | 20.6 | 60.5 | 11 | 18.1 | -0.87 | greater selectivity for NMDAR | 171,028 ng*min/g | 23,552 ng*min/g | 14 | 116 | 436 | 1130 | 114 | 442 | 671 | 59 | 137 | half-life [6, 13]: 141 min
7 | COCCNC1(c2ccccc2)CCCCC1=O (racemic) [Compound 29rac, 2-((2-methoxyethyl)amino)-2-phenylcyclohexan-1-one] |  |  | 17 | 41 |  |  | greater selectivity for NMDAR |  |  |  |  |  |  |  |  |  |  |  | 
8 | N[C@@]1(c2ccccc2)CCCCC1=O [Compound 11R, (R)-2-amino-2-phenyl-cyclohexan-1-one] |  | 0.19 | 169 | 4 | -11.8 | 14.4 |  | 621,341 ng*min/g | 220,091 ng*min/g | 35 | 70.2 | 1470 | 5570 | 66.6 | 1430 | 4210 | 76 | 145 | half-life [6, 13]: 114 min
9 | O=C1CCCC[C@@]1(c1ccccc1)N1CCC1 [Compound 84S, (S)-2-(azetidin-1-yl)-2-phenyl-cyclohexan-1-one] | 940 | 91.9 | 19.3 | 36 | 32.2 | 10.9 |  |  |  |  |  |  |  |  |  |  |  |  | IC50 [3]: 19.5 µM; IC50 [4]: > 100 µM
10 | O=C1CCCCC1(c1ccccc1)N1CCCC1 (racemic) [Compound 27rac, 2-phenyl-2-(pyrrolidin-1-yl)cyclohexan-1-one] | 450 | 88.6 | 35 | 20 | 49.5 | 60.4 |  |  |  |  |  |  |  |  |  |  |  |  | IC50 [3]: 6.5 µM; IC50 [4]: 11.2 µM
11 | CNC1(c2ccccc2Cl)CCCCC1=O (racemic) [rac-ketamine, racemic ketamine, reference compound] |  |  | 9.3 | 75 |  |  |  |  |  |  |  |  |  |  |  |  |  |  | 
12 | Cc1ccccc1[C@@]1(N)CCCCC1=O [Compound 114S, (S)-2-amino-2-(o-tolyl)cyclohexan-1-one] |  | -4 |  |  | -15.2 | -15.9 | greater selectivity for NMDAR | 244,634 ng*min/g | 86,338 ng*min/g | 35 |  | 825 | 757 | 80.4 | 746 | 1470 | 194 | 79.2 | 
